From patent US10059723B2 (BIOMARIN PHARMACEUTICAL INC., priority 2011, dated 2018)

Tests used:
[1] = system: HCT116 cells; assay: Cell proliferation assay; type: cell-based; conditions: Homo sapiens, HCT-116, 72 h, read-out: Hct-116 (anti-proliferation IC50)
Description: HCT116 cells (5000 cells/well) in 80 μL McCoy's 5A medium containing 10% v/v FBS, 1% v/v penicillin/streptomycin and 1% v/v L-glutamine were incubated in 96-well plates with compounds at various concentrations for 72 h at 37° C. in a 5% CO2 atmosphere. The compound dilutions were made in 100% DMSO followed by parallel dilutions in media. The final concentration of DMSO in each well was 0.05%. After 72 h, 20 μL of Cell titer 96 aqueous one solution (Promega Corporation, Madison, Wis.) were added to the cells and the plate was incubated at 37° C. for another 4 h. The absorbance at 490 nm was then recorded on a 96-well plate reader (Spectramax M2, Molecular Devices, Sunnyvale, Calif.). Data analysis was performed in Microsoft Excel (Microsoft Corp, Redmond, Wash.).

[2] = system: GM 15850 (lymphoblastoid cells line) cells; assay: In-cell deacetylase inhibition assay (DAC assay); type: cell-based; conditions: Homo sapiens, GM15850; GM 15850 cells, 4 h incubation; read-out: 850 DAC (in-cell deacetylase inhibition IC50)
Description: Compound dilutions were made in 100% DMSO followed by parallel dilution in media with 2% DMSO. 10 μl of the compound dilutions were added to the cells to achieve the desired concentrations. The final concentration of DMSO in each well was 0.2%. The cells were incubated for 4 h at 37° C. with 5% CO2. After incubation, the cells were centrifuged down and the supernatant was removed. […] The reaction was stopped after 30 min incubation by addition of 50 μL developer (6 mg/mL trypsin in HDAC assay buffer). The reaction was allowed to develop for 30 min at room temperature and the fluorescence signal was detected using a fluorometer (Spectramax M2, Molecular Devices, Sunnyvale, Calif.) with excitation and emission wavelengths of 360 nm and 470 nm respectively. The data was fitted to a sigmoidal dose response equation with variable slope in GraphPad Prism 5.0 (GraphPad Software, La Jolla, Calif.) to determine IC50. Bottom and top of the curve were fixed to the average fluorescence response of control wells with no cells and cells but no compound respectively.

[3] = Brain penetration studies;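 note: compound levels in brain and plasma quantified by LC/MS/MS, sampled from pre-dose up to 4 h after dosing, three mice per dose and time point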; type: in vivo; conditions: C57/BL6/J, mouse, brain and plasma; mice, s.c. 5 or 50 mg/kg or i.v. 5 mg/kg; read-out: BPR (brain/plasma ratio, Cmax(brain)/Cmax(plasma))
Description: Test compounds were prepared at either 0.5 mg/ml or 5 mg/ml in 30% hydroxypropyl-β-cyclodextrin, 100 mM sodium acetate pH 5.5, 5% DMSO. C57/BL6/J mice were dosed s.c. at 5 mg/kg or 50 mg/kg, or i.v. at 5 mg/kg. Animals were euthanized at pre-dose, 5, 15, 30 min, 1, 2 and 4 hours post-dose and plasma and brain obtained. Three animals per dose per time points were used. The levels of compound in the plasma and brain were determined by standard LC/MS/MS methods. Brain/plasma ratio (BPR) was calculated as the ratio of the Cmax(brain)/Cmax(plasma).

[4] = molecular target: T1, HDAC1 (Homo sapiens, UniProt Q13547); assay: HDAC activity inhibition assay, HDAC1; type: biochemical; conditions: 2 hours pre-incubation, Fluor-de-Lys substrate 10 μM
T1 construct: purchased BPS Bioscience 50051
T1 sequence (Q13547 whole entry): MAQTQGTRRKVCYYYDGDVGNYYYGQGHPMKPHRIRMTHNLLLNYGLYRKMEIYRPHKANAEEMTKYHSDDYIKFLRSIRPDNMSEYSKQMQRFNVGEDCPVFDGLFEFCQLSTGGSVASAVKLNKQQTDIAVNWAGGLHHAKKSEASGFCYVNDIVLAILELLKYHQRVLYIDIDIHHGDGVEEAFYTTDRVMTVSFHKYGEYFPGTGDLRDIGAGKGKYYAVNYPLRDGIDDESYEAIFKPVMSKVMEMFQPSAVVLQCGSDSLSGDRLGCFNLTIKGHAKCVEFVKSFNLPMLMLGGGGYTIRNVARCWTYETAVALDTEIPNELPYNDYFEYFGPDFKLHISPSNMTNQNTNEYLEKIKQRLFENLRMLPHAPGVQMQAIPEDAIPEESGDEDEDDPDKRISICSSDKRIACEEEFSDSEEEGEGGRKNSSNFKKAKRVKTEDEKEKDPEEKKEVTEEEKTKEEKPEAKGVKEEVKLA
Description: The HDAC activity inhibition assay was performed as follows to determine the ability of a test compound to inhibit HDAC enzymatic activity. […] Following pre-incubation, Fluor-de-Lys™ substrate (Enzo Life Sciences, Plymouth Meeting, Pa., BML-KI104-0050) was added to a final concentration of 10 μM and plates were further incubated for 30 minutes at room temperature. […] IC50 values were calculated by using a sigmoidal dose-response (variable slope) equation in GraphPad Prism® 5 for Windows (GraphPad Software, La Jolla, Calif.).

[5] = system: C57BL/6J male mice; assay: Long term memory for object recognition; type: in vivo; conditions: s.c. 3, 10, 30 mg/kg
Description: C57BL/6J male mice were handled 1-2 min for 5 days and were habituated to the experimental apparatus 5 min a day for 4 consecutive days in the absence of objects. […] 24-h later mice were tested for memory retention (5 min) using the object recognition memory task (ORM), in which a familiar object was replaced with a novel one. All training and testing trials were videotaped and analyzed by individuals blind to the treatment condition and the genotype of subjects. A mouse was scored as exploring an object when its head was oriented toward the object within a distance of 1 cm or when the nose was touching the object. The relative exploration time was recorded and expressed by a discrimination index [DI=(tnovel−tfamiliar)/(tnovel+tfamiliar)×100].

Row | IC50 [1] [µM] | IC50 [2] [µM] | Kp [3] | SMILES | IC50 [4] [µM] | dose dependence of the effect on long-term memory [5]
1 | < 5 | 1 to 5 | 0.2 to 0.5 | Nc1ccccc1NC(=O)c1ccc(C=C2CN(Cc3ccc4cc[nH]c4c3)C2)cc1 [F3] | – | –
2 | < 5 | 5 to 10 | 0.5 to 1 | Nc1ccccc1NC(=O)/C=C/c1cnn(CCc2ccccc2)c1 [D7] | – | –
3 | – | > 20 | < 0.1 | Nc1ccccc1NC(=O)c1ccc(C=C2CCN(C(=O)OCc3ccccc3)CC2)cc1 [F1] | – | –
4 | > 20 | 10 to 20 | 0.5 to 1 | Cn1cc(/C=C/C(=O)Nc2ccccc2N)cn1 [A2] | – | –
5 | – | > 20 | – | Cn1cnc(/C=C/C(=O)Nc2ccccc2N)c1 [A12] | – | –
6 | 10 to 20 | > 20 | 0.1 to 0.2 | Nc1ccccc1NC(=O)/C=C/c1cnc2ccccn12 [A6, (E)-N-(2-aminophenyl)-3-(imidazo[1,2-a]pyridin-3-yl)acrylamide] | – | –
7 | > 20 | 10 to 20 | > 1 | Nc1ccccc1NC(=O)/C=C/c1csc(CC=Cc2ccccc2)n1 [E2, (E)-N-(2-aminophenyl)-3-(2-cinnamylthiazol-4-yl)acrylamide] | – | –
8 | – | 5 to 10 | – | Nc1ccccc1NC(=O)/C=C/c1cnn(CCOCc2ccccc2)c1 [D14] | – | –
9 | – | 1 to 5 | 0.2 to 0.5 | Nc1ccccc1NC(=O)/C=C/c1cnn(CCOc2cc(F)cc(F)c2)c1 [B3, (E)-N-(2-aminophenyl)-3-(1-(2-(3,5-difluorophenoxy)ethyl)-1H-pyrazol-4-yl)acrylamide] | – | –
10 | – | – | – | Cn1cc(/C=C/C(=O)Nc2ccc(F)cc2N)cn1 [C2] | > 20 | –
11 | – | > 20 | – | Nc1ccccc1NC(=O)/C=C/c1cn2ccccc2n1 [A9] | – | –
12 | – | > 20 | 0.5 to 1 | CCn1cc(/C=C/C(=O)Nc2ccccc2N)cn1 [C1] | – | –
13 | < 5 | 10 to 20 | > 1 | Nc1ccccc1NC(=O)c1ccc(C=C2CCN(Cc3cccnc3)CC2)cc1 [F2] | – | –
14 | – | > 20 | 0.5 to 1 | Cn1ccc(/C=C/C(=O)Nc2ccccc2N)n1 [A7] | – | –
15 | > 20 | 5 to 10 | 0.2 to 0.5 | Nc1ccccc1NC(=O)/C=C/c1cnn(Cc2ccccc2)c1 [D4] | – | –
16 | – | 1 to 5 | < 0.1 | Nc1ccccc1NC(=O)/C=C/c1cnn(CCc2c[nH]c3ccccc23)c1 [D13] | – | –
17 | – | – | – | Cc1ccc(C(=O)NCCCCCC(=O)Nc2ccc(F)cc2N)cc1 [RGFP 136, reference compound] | – | Dose dependent effects
18 | – | 10 to 20 | 0.2 to 0.5 | Nc1ccccc1NC(=O)/C=C/c1cn2ccnc2s1 [A10] | – | –
19 | – | > 20 | – | Cn1cc(/C=C/C(=O)Nc2cc(F)ccc2N)cn1 [C3] | – | –
20 | – | 1 to 5 | > 1 | Nc1ccccc1NC(=O)/C=C/c1cnn(CC/C=C/c2ccccc2)c1 [D11] | – | –
21 | – | 10 to 20 | – | Nc1ccccc1NC(=O)/C=C/c1cnn(CC2CC2)c1 [B1] | – | –
22 | > 20 | 5 to 10 | 0.1 to 0.2 | Nc1ccccc1NC(=O)/C=C/c1cnn(Cc2ccc(F)cc2)c1 [D5] | – | –

Row | IC50 [1] [µM] | IC50 [2] [µM] | Kp [3] | SMILES | IC50 [4] [µM] | dose dependence of the effect on long-term memory [5]
23 | – | > 20 | – | CCOCc1cn2cc(/C=C/C(=O)Nc3ccccc3N)sc2n1 [E1, (E)-N-(2-aminophenyl)-3-(6-(ethoxymethyl)imidazo[2,1-b]thiazol-2-yl)acrylamide] | – | –
24 | – | – | > 1 | Nc1ccccc1NC(=O)/C=C/c1cnn(-c2ccccc2)c1 [A11] | – | –
25 | > 20 | 5 to 10 | 0.5 to 1 | Nc1ccccc1NC(=O)/C=C/c1cnn(CC(F)(F)c2ccccc2)c1 [D10] | – | –
26 | < 5 | 1 to 5 | 0.2 to 0.5 | Nc1ccccc1NC(=O)/C=C/c1cnn(CCOc2ccccc2)c1 [D3, (E)-N-(2-aminophenyl)-3-(1-(2-phenoxyethyl)-1H-pyrazol-4-yl)acrylamide] | – | –
27 | – | – | 0.2 to 0.5 | Cc1cc(/C=C/C(=O)Nc2ccccc2N)on1 [A5] | – | –
28 | > 20 | > 20 | 0.2 to 0.5 | Nc1cc(F)ccc1NC(=O)/C=C/c1cnn(C/C=C/c2ccccc2)c1 [D2, (E)-N-(2-amino-4-fluorophenyl)-3-(1-cinnamyl-1H-pyrazol-4-yl)acrylamide] | – | no effect of dose
29 | – | 10 to 20 | 0.2 to 0.5 | Nc1ccccc1NC(=O)/C=C/c1cnn(CCOc2ccc(C(F)(F)F)cc2)c1 [B4] | – | –
30 | – | 5 to 10 | – | Nc1ccccc1NC(=O)c1ccc(C=C2CN(Cc3ccc4cc[nH]c4c3)C2)c(Cl)c1 [F5, 4-((1-((1H-Indol-6-yl)methyl)azetidin-3-ylidene)methyl)-N-(2-aminophenyl)-3-chlorobenzamide] | – | –
31 | – | > 20 | 0.5 to 1 | Cc1nc(/C=C/C(=O)Nc2ccccc2N)cs1 [A1] | – | –
32 | – | 1 to 5 | 0.5 to 1 | CN(CCCn1cc(/C=C/C(=O)Nc2ccccc2N)cn1)c1ccccc1 [D12] | – | –
33 | – | 10 to 20 | – | Nc1cc(F)ccc1NC(=O)/C=C/c1cnn(CCOc2ccccc2)c1 [D16] | – | –
34 | – | 1 to 5 | – | Nc1ccccc1NC(=O)/C=C/c1cnn(CCCOc2ccccc2)c1 [D15] | – | –
35 | 5 to 10 | 1 to 5 | 0.5 to 1 | Nc1ccccc1NC(=O)/C=C/c1cnn(CCCCc2ccccc2)c1 [D9] | – | –
36 | < 5 | 1 to 5 | 0.2 to 0.5 | Nc1ccccc1NC(=O)/C=C/c1cnn(CCCc2ccccc2)c1 [D8] | – | –
37 | – | 10 to 20 | – | Nc1ccccc1NC(=O)c1ccc(C=C2CN(Cc3cccnc3)C2)c(Cl)c1 [F6] | – | –
38 | – | > 20 | – | Cc1ncc(/C=C/C(=O)Nc2ccccc2N)s1 [A3] | – | –
39 | – | 5 to 10 | – | Nc1ccccc1NC(=O)/C=C/c1cnn(C/C=C/c2ccc(F)cc2)c1 [B2] | – | –
40 | – | 5 to 10 | 0.2 to 0.5 | Nc1ccccc1NC(=O)/C=C/c1cnn(CCOc2cc(F)cc(Cl)c2)c1 [B5, (E)-N-(2-aminophenyl)-3-(1-(2-(3-chloro-5-fluorophenoxy)ethyl)-1H-pyrazol-4-yl)acrylamide] | – | –
41 | – | 10 to 20 | 0.5 to 1 | Nc1ccccc1NC(=O)/C=C/c1cc2ccccn2n1 [A8] | – | –
42 | – | 5 to 10 | – | Nc1ccccc1NC(=O)/C=C/c1cnn(CCOc2ccc(F)cc2)c1 [B6] | – | –
43 | < 5 | 1 to 5 | 0.5 to 1 | Nc1ccccc1NC(=O)c1ccc(CC2CN(Cc3ccc4cc[nH]c4c3)C2)cc1 [F4] | – | –
44 | > 20 | 10 to 20 | < 0.1 | Cc1cccc(Cn2cc(/C=C/C(=O)Nc3ccccc3N)cn2)n1 [D6] | – | –

Row | SMILES | IC50 [1] [µM] | IC50 [2] [µM] | Kp [3] | IC50 [4] [µM] | dose dependence of the effect on long-term memory [5]
45 | Cc1nn(C/C=C/c2ccccc2)c(C)c1/C=C/C(=O)Nc1ccccc1N [G2, (E)-N-(2-aminophenyl)-3-(1-cinnamyl-3,5-dimethyl-1H-pyrazol-4-yl)acrylamide] | > 20 | – | – | – | –
46 | CN1CCC(Cn2cc(/C=C/C(=O)Nc3ccccc3N)cn2)CC1 [G1, (E)-N-(2-aminophenyl)-3-(1-((1-methylpiperidin-4-yl)methyl)-1H-pyrazol-4-yl)acrylamide] | > 20 | – | – | – | –
